In patent publication US20100317524A1, “Sulfonylureas” (Bayer CropScience AG, priority 2005, published 2010):

What was measured:
[1] = system: weed plants such as Sinapis alba, Echinochloa crus-galli, Lolium multiflorum, Chrysanthemum segetum, Setaria viridis, Abutilon theophrasti, Amaranthus …; assay: Post-emergence effect on weeds (greenhouse pot test, visual scoring); format: in vivo; details: applied post-emergence (three-leaf stage) at a rate of 0.3 kg or less of active substance per hectare; visual scoring after about 3 to 4 weeks vs untreated controls
Procedure: Seeds or sections of rhizome from monocot and dicot broadleaf weeds were laid out in sandy loam soil in plastic pots, covered with earth, and cultivated in a greenhouse under good growth conditions. Three weeks after sowing, the test plants were treated at the three-leaf stage. The compounds of the invention, formulated as wettable powders or as emulsion concentrates, were sprayed in different dosages onto the green parts of the plants, at an application rate of 600 to 800 l of water per hectare (converted). After the test plants had stood in the greenhouse under optimum growth conditions for a period of about 3 to 4 weeks, the effect of the products was scored visually in comparison to untreated controls.

[2] = system: weed plants such as Sinapis alba, Chrysanthemum segetum, Avena sativa, Stellaria media, Echinochloa crus-galli, Lolium multiflorum, Setaria viridis, Abutilon …; assay: Pre-emergence effect on weeds (greenhouse pot test, visual scoring); format: in vivo; details: applied pre-emergence at a rate of 0.3 kg or less of active substance per hectare; visual scoring after 3 to 4 weeks vs untreated controls
From the text: Seeds or sections of rhizome from monocot and dicot weed plants were laid out in sandy loam soil in cardboard pots, and covered with soil. The compounds of the invention, formulated as wettable powders or emulsifiable concentrates, were then applied, in the form of aqueous suspensions or emulsions, at various dosages, onto the surface of the covering earth, at an application rate of 600 to 800 l of water per hectare (converted). Following the treatment, the pots were placed in a greenhouse and maintained under good growth conditions for the weeds. Visual scoring of the plant damage or emergence damage was made when the test plants had emerged, after a test time of 3 to 4 weeks, in comparison to untreated controls.

Compound	herbicidal action against weed plants, post-emergence [1]	herbicidal action against weed plants, pre-emergence [2]
COc1cc(OC)nc(NC(=O)NS(=O)(=O)c2c(F)cccc2I)n1 [Compound 1.001]	very good herbicidal action	very good herbicidal action
COc1nc(C)nc(NC(=O)NS(=O)(=O)c2c(F)cccc2I)n1 [Compound 1.002]	very good herbicidal action	very good herbicidal action
Cc1cc(C)nc(NC(=O)NS(=O)(=O)c2c(F)cccc2I)n1 [Compound 1.003]	very good herbicidal action	very good herbicidal action
COc1cc(Cl)nc(NC(=O)NS(=O)(=O)c2c(F)cccc2I)n1 [Compound 1.004]	very good herbicidal action	very good herbicidal action
COc1cc(OC)nc(NC(=O)NS(=O)(=O)c2c(C)cccc2I)n1 [Compound 1.012]	very good herbicidal action	very good herbicidal action
COc1nc(C)nc(NC(=O)NS(=O)(=O)c2c(C)cccc2I)n1 [Compound 1.016]	very good herbicidal action	very good herbicidal action
Cc1cc(C)nc(NC(=O)NS(=O)(=O)c2c(C)cccc2I)n1 [Compound 1.020]	very good herbicidal action	very good herbicidal action
COc1cc(Cl)nc(NC(=O)NS(=O)(=O)c2c(C)cccc2I)n1 [Compound 1.021]	very good herbicidal action	very good herbicidal action
COc1nc(NC(=O)NS(=O)(=O)c2c(C)cccc2I)nc(OC)n1 [Compound 1.025]	very good herbicidal action	very good herbicidal action
COc1cc(OC)nc(NC(=O)NS(=O)(=O)c2c(I)cccc2C(F)(F)F)n1 [Compound 1.091]	very good herbicidal action	very good herbicidal action
COc1nc(C)nc(NC(=O)NS(=O)(=O)c2c(I)cccc2C(F)(F)F)n1 [Compound 1.095]	very good herbicidal action	very good herbicidal action
Cc1cc(C)nc(NC(=O)NS(=O)(=O)c2c(I)cccc2C(F)(F)F)n1 [Compound 1.099]	very good herbicidal action	very good herbicidal action
COc1cc(Cl)nc(NC(=O)NS(=O)(=O)c2c(I)cccc2C(F)(F)F)n1 [Compound 1.100]	very good herbicidal action	very good herbicidal action
COc1nc(NC(=O)NS(=O)(=O)c2c(I)cccc2C(F)(F)F)nc(OC)n1 [Compound 1.104]	very good herbicidal action	very good herbicidal action
COc1cc(OC)nc(NC(=O)NS(=O)(=O)c2c(I)cccc2OC)n1 [Compound 1.146, N-{[(4,6-Dimethoxypyrimidin-2-yl)amino]carbonyl}-2-iodo-6-methoxybenzenesulfonamide]	very good herbicidal action	very good herbicidal action
COc1nc(C)nc(NC(=O)NS(=O)(=O)c2c(I)cccc2OC)n1 [Compound 1.150]	very good herbicidal action	very good herbicidal action

Compound	herbicidal action against weed plants, post-emergence [1]	herbicidal action against weed plants, pre-emergence [2]
COc1cccc(I)c1S(=O)(=O)NC(=O)Nc1nc(C)cc(C)n1 [Compound 1.154]	very good herbicidal action	very good herbicidal action
COc1cc(Cl)nc(NC(=O)NS(=O)(=O)c2c(I)cccc2OC)n1 [Compound 1.155]	very good herbicidal action	very good herbicidal action
COc1nc(NC(=O)NS(=O)(=O)c2c(I)cccc2OC)nc(OC)n1 [Compound 1.159]	very good herbicidal action	very good herbicidal action
CCOc1cccc(I)c1S(=O)(=O)NC(=O)Nc1nc(OC)cc(OC)n1 [Compound 1.164]	very good herbicidal action	very good herbicidal action
CCOc1cccc(I)c1S(=O)(=O)NC(=O)Nc1nc(C)nc(OC)n1 [Compound 1.165]	very good herbicidal action	very good herbicidal action
CCOc1cccc(I)c1S(=O)(=O)NC(=O)Nc1nc(C)cc(C)n1 [Compound 1.166]	very good herbicidal action	very good herbicidal action
CCOc1cccc(I)c1S(=O)(=O)NC(=O)Nc1nc(Cl)cc(OC)n1 [Compound 1.167]	very good herbicidal action	very good herbicidal action
CCOc1cccc(I)c1S(=O)(=O)NC(=O)Nc1nc(OC)nc(OC)n1 [Compound 1.168]	very good herbicidal action	very good herbicidal action
CCCOc1cccc(I)c1S(=O)(=O)NC(=O)Nc1nc(OC)cc(OC)n1 [Compound 1.171]	very good herbicidal action	very good herbicidal action
CCCOc1cccc(I)c1S(=O)(=O)NC(=O)Nc1nc(C)cc(C)n1 [Compound 1.173]	very good herbicidal action	very good herbicidal action
CCCOc1cccc(I)c1S(=O)(=O)NC(=O)Nc1nc(Cl)cc(OC)n1 [Compound 1.174]	very good herbicidal action	very good herbicidal action
CCCOc1cccc(I)c1S(=O)(=O)NC(=O)Nc1nc(OC)nc(OC)n1 [Compound 1.175]	very good herbicidal action	very good herbicidal action
COc1cc(OC)nc(NC(=O)NS(=O)(=O)c2c(I)cccc2OC(C)C)n1 [Compound 1.178]	very good herbicidal action	very good herbicidal action
COc1nc(C)nc(NC(=O)NS(=O)(=O)c2c(I)cccc2OC(C)C)n1 [Compound 1.182]	very good herbicidal action	very good herbicidal action
Cc1cc(C)nc(NC(=O)NS(=O)(=O)c2c(I)cccc2OC(C)C)n1 [Compound 1.186]	very good herbicidal action	very good herbicidal action
